One compound from patent publication US9975881B2, “Compound” (ASTRAZENECA AB, priority 2011, dated 2018) can be followed below.

This experiment has as its target T1, human CXCR2 (Homo sapiens, UniProt P25025).
T1 construct: expressed in transfected cells
T1 sequence (P25025 1-360): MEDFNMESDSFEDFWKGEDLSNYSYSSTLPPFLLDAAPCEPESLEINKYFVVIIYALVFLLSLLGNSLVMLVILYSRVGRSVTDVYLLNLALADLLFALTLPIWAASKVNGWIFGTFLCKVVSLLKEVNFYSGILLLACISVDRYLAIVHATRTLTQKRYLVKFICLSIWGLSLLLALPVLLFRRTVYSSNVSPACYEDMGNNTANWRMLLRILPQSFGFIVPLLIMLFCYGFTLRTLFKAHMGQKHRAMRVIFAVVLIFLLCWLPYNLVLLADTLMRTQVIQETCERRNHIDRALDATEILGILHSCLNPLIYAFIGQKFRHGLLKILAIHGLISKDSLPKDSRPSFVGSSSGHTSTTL
The experiment is described as follows: Potency (pIC50) - ligand binding assay, Alexa647 IL-8 displacement from CXCR2 membranes. The following applies: 50% reduction in specific Alexa647 IL-8 (1 nM) binding to HEK293 human CXCR2 membranes. From the text:
Potency (pIC50)—Ligand Binding Assay
Human Embryonic Kidney 293 cells (HEK293 cells) from the American Type Culture Collection were transfected with human CXCR2 cDNA (RefSeqNM_001557), previously cloned into the eukaryotic expression vector pIRES-Neo2, (Clontech). Populations of Geneticin (Invitrogen)-resistant cells were selected for stable expression of CXCR2 and clones were generated by dilution cloning (0.3 cells/well) in 96-well tissue culture plates.
Cells of the highest expressing clone (Clone 6, identified by FACS analysis) were harvested, following 24 hour pre-treatment with 5 mM sodium butyrate, in 10 ml of ice-cold hypotonic buffer (20 mM HEPES, 1 mM EDTA, 0.1 mM DTT, 0.1 mM Phenyl Methyl Sulphonyl Fluoride and 0.1 mg/L Bacitracin, pH7.4) and left to swell for 10 min. Following centrifugation (200 g, 5 min, 4° C.), cells were resuspended in hypotonic buffer and membranes were prepared using a polytron tissue homogenizer (3×10 second treatments). […]
All assays were performed in black, 384-well plates (Greiner). […] Total binding of Alexa^647 IL-8 was determined in the absence of competing compound and non-specific binding of Alexa^647 IL-8 was determined in the presence of 0.3 μM 1-(4-chloro-2-hydroxy-3-sulfamoyl-phenyl)-3-(2,3-dichlorophenyl)urea. […]

The structures appear in SMILES notation. pIC50: −log10 of the molar value.

On to `CC1CN(S(=O)(=O)Nc2cc(O[C@H](C)[C@@H](O)CO)nc(SCc3ccc(F)cc3)n2)C1` [Example 1, N-(6-((2R,3S)-3,4-Dihydroxybutan-2-yloxy)-2-(4-fluorobenzylthio)pyrimidin-4-yl)-3-methylazetidine-1-sulfonamide], for which the pIC50 was 8.40.
